Results on five molecules are retold here after patent US20180282310A1, “FORMS AND COMPOSITIONS OF BIARYL INHIBITORS OF BRUTON'S TYROSINE KINASE” (BIOGEN MA INC., priority 2015, published 2018).

Holding throughout (assay type): physicochemical
The nature of data set [1]: Dynamic vapor sorption (DVS): hygroscopicity and physical stability under humidity. As for the experimental part:
Dynamic Vapor Sorption (DVS) was measured via a SMS (Surface Measurement Systems) DVS Intrinsic.
To evaluate the hygroscopicity and physical stability of Compound 2 Type A under increased humidity, DVS isotherm data was collected at 25° C. with the starting sample pre-dried at 0% RH until a mass change rate lower than 0.002%/min.

The nature of data set [2]: Estimated solubility in solvents at room temperature (stepwise solvent addition). Conditions: for solubility: thermodynamic from solid. The protocol:
Approximately 2 mg solids were added into a 3-mL glass vial. Solvents in Table 39 were then added step wise (100 μL per step) into the vials until the solids were dissolved or a total volume of 2 mL was reached. Results summarized in Table 39 were used to guide the solvent selection in polymorph screening. […] Approximately 2 mg solids were added into a 3-mL glass vial. Solvents in Table 4-6 were then added stepwise (100 μL per step) into the vials until the solids were dissolved or a total volume of 2 mL was reached. Results are summarized in Table 57, which were used to guide the solvent selection in polymorph screening.

A short description of data set [3]: Physical form stability on storage or drying (XRPD/TGA). An excerpt: A sample of Compound 2 Type B reference was generated via evaporation of a solution in MeOH/MIBK (v/v, 4:1) at room temperature. […] As the sample was still wet after form transformation, Compound 2 Type B is suspected to be a metastable form at ambient conditions.

Values after ≈ are worked out from the molar mass of the structure shown.

Regarding `Cc1cc(-c2ccnc(Nc3cnn(C)c3)n2)ccc1CNC(=O)N1CC(OC(C)C)C1.Cl` [Compound 2 Type A], the “Form change after the DVS test (XRPD)” value in data set [1] (25° C.) was “no form change”. For the same molecule, the “Hygroscopicity (DVS)” value in data set [1] (25° C.) is listed as “slightly hygroscopic”. For the same molecule, the “Water uptake (DVS)” value in data set [1] (25° C./80% RH, sample pre-dried at 0% RH) worked out at 1.0%. Moreover, the solubility in data set [2] (20 °C, organic solvent or mixture, 1,4-dioxane, room temperature (RT, 20±3° C.)) is less than 1000 µg/mL; in data set [2] (20 °C, organic solvent or mixture, 2-MeTHF, room temperature (RT, 20±3° C.)), less than 1000 µg/mL; in data set [2] (20 °C, organic solvent or mixture, ACN, room temperature (RT, 20±3° C.)), less than 1000 µg/mL; in data set [2] (20 °C, organic solvent or mixture, Acetone, room temperature (RT, 20±3° C.)), less than 900 µg/mL; in data set [2] (20 °C, organic solvent or mixture, CHCl3, room temperature (RT, 20±3° C.)) it was less than 1100 µg/mL; in data set [2] (20 °C, organic solvent or mixture, DCM, room temperature (RT, 20±3° C.)), less than 1100 µg/mL. For the same molecule, the solubility is 22000 to 44000 µg/mL in data set [2] (20 °C, organic solvent or mixture, DMAc, room temperature (RT, 20±3° C.)); 14000 to 21000 µg/mL in data set [2] (20 °C, organic solvent or mixture, DMSO, room temperature (RT, 20±3° C.)); less than 1000 µg/mL in data set [2] (20 °C, organic solvent or mixture, EtOAc, room temperature (RT, 20±3° C.)); 4400 to 5500 µg/mL in data set [2] (20 °C, organic solvent or mixture, EtOH, room temperature (RT, 20±3° C.)); 1700 to 1800 µg/mL in data set [2] (20 °C, organic solvent or mixture, IPA, room temperature (RT, 20±3° C.)); less than 1200 µg/mL in data set [2] (20 °C, organic solvent or mixture, IPAc, room temperature (RT, 20±3° C.)). For the same molecule, the solubility is less than 1000 µg/mL in data set [2] (20 °C, organic solvent or mixture, MIBK, room temperature (RT, 20±3° C.)); less than 1000 µg/mL in data set [2] (20 °C, organic solvent or mixture, MTBE, room temperature (RT, 20±3° C.)); greater than 34000 µg/mL in data set [2] (20 °C, organic solvent or mixture, MeOH, room temperature (RT, 20±3° C.)); 14700 to 22000 µg/mL in data set [2] (20 °C, organic solvent or mixture, NMP, room temperature (RT, 20±3° C.)); less than 900 µg/mL in data set [2] (20 °C, organic solvent or mixture, THF, room temperature (RT, 20±3° C.)); less than 1100 µg/mL in data set [2] (20 °C, organic solvent or mixture, Toluene, room temperature (RT, 20±3° C.)). For the same molecule, the solubility in data set [2] (20 °C, organic solvent or mixture, n-heptane, room temperature (RT, 20±3° C.)) is less than 900 µg/mL. Further, the “Behaviour in the solubility test (stability of the salt)” value in data set [2] (H2O, room temperature, colour change of solids from orange to faint yellow) is on record as “N/A: disproportionation occurred along with obvious color change of solids from orange to faint yellow”.

Turning to `Cc1cc(-c2ccnc(Nc3cnn(C)c3)n2)ccc1CNC(=O)N1CC(OC(C)C)C1` [Compound 1 Type E, 3-isopropoxy-N-(2-methyl-4-(2-((1-methyl-1H-pyrazol-4-yl)amino)pyrimidin-4-yl)benzyl)azetidine-1-carboxamide], the “Solid form after storage (XRPD)” value in data set [3] (ambient conditions for 2 days) was “conformed to Type B”.

Take `Cc1cc(-c2ccnc(Nc3cnn(C)c3)n2)ccc1CNC(=O)N1CC(OC(C)C)C1.Cl` [Compound 2 Type B]: the “Solid form change during air drying (XRPD)” value in data set [3] (air drying at ambient conditions) is listed as “converted into Compound 2 Type A”.

On to `Cc1cc(-c2ccnc(Nc3cnn(C)c3)n2)ccc1CNC(=O)N1CC(OC(C)C)C1` [Compound 1 Type B, 3-isopropoxy-N-(2-methyl-4-(2-((1-methyl-1H-pyrazol-4-yl)amino)pyrimidin-4-yl)benzyl)azetidine-1-carboxamide], for which the “Physical stability on vacuum drying” value in data set [3] (vacuum dried at 80° C. for 15 hrs) was “physically unstable”. Also, in data set [1] (25° C.), the “Form change after the DVS test (XRPD)” value was “no form change” and the “Hygroscopicity (DVS)” value is “slightly hygroscopic”. Besides, the “Behaviour at low humidity (DVS)” value in data set [1] (relative humidity (RH) less than 10%, 25° C.) is listed as “tends to dehydrate”.

For the molecule `Cc1cc(-c2ccnc(Nc3cnn(C)c3)n2)ccc1CNC(=O)N1CC(OC(C)C)C1` [Compound 1 Type A, 3-isopropoxy-N-(2-methyl-4-(2-((1-methyl-1H-pyrazol-4-yl)amino)pyrimidin-4-yl)benzyl)azetidine-1-carboxamide], the solubility in data set [2] (organic solvent or mixture, 1,4-Dioxane, room temperature) is 3500 to 4200 µg/mL (≈ 8.04 to 9.64 mM); in data set [2] (organic solvent or mixture, 2-MeTHF, room temperature), 2200 to 2400 µg/mL (≈ 5.05 to 5.51 mM); in data set [2] (organic solvent or mixture, ACN, room temperature), 2300 to 2600 µg/mL (≈ 5.28 to 5.97 mM); in data set [2] (organic solvent or mixture, Acetic acid, room temperature), greater than 54000 µg/mL; in data set [2] (organic solvent or mixture, Acetone, room temperature), 4600 to 5800 µg/mL (≈ 10.6 to 13.3 mM); in data set [2] (organic solvent or mixture, CHCl3, room temperature) it was 20000 to 40000 µg/mL (≈ 45.9 to 91.8 mM). Also, the solubility is 12000 to 24000 µg/mL (≈ 27.6 to 55.1 mM) in data set [2] (organic solvent or mixture, DCM, room temperature); greater than 54000 µg/mL in data set [2] (organic solvent or mixture, DMAc, room temperature); greater than 38000 µg/mL in data set [2] (organic solvent or mixture, DMSO, room temperature); 1400 to 1500 µg/mL (≈ 3.21 to 3.44 mM) in data set [2] (organic solvent or mixture, EtOAc, room temperature); 4400 to 5500 µg/mL (≈ 10.1 to 12.6 mM) in data set [2] (organic solvent or mixture, EtOH, room temperature); 3000 to 3500 µg/mL (≈ 6.89 to 8.04 mM) in data set [2] (organic solvent or mixture, IPA, room temperature). The solubility was less than 1500 µg/mL in data set [2] (organic solvent or mixture, IPAc, room temperature); less than 1400 µg/mL in data set [2] (organic solvent or mixture, MIBK, room temperature); less than 1300 µg/mL in data set [2] (organic solvent or mixture, MTBE, room temperature); 12500 to 25000 µg/mL (≈ 28.7 to 57.4 mM) in data set [2] (organic solvent or mixture, MeOH, room temperature); greater than 56000 µg/mL in data set [2] (organic solvent or mixture, NMP, room temperature); 6000 to 9000 µg/mL (≈ 13.8 to 20.7 mM) in data set [2] (organic solvent or mixture, THF, room temperature). The solubility was less than 900 µg/mL in data set [2] (organic solvent or mixture, Toluene, room temperature); less than 1500 µg/mL in data set [2] (organic solvent or mixture, n-Heptane, room temperature); less than 1100 µg/mL in data set [2] (water, H2O, room temperature).
